From ChEMBL document CHEMBL1201862, “PubChem BioAssay data set” (2004)
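Assay format: 96-well plates, 48-hour exposure. Abbreviation: GI50, concentration required for 50% inhibition of growth.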 Activity calls are given as the source filed them. Cut-off read from the data, not from the text of the source: active = GI50 up to about 1.1 µM and inactive = higher.

Tests used:
Assay in all cases: NCI tumour cell line growth inhibition, 48 h
HCC 2998 = tested on: HCC 2998
NCI-H226 = tested on: NCI-H226
HT-29 = tested on: HT-29
SK-MEL-28 = tested on: SK-MEL-28
TK-10 = tested on: TK-10
LOX IMVI = tested on: LOX IMVI
SF-539 = tested on: SF-539
NCI-H460 = tested on: NCI-H460
HCT-15 = tested on: HCT-15
COLO 205 = tested on: COLO 205
OVCAR-4 = tested on: OVCAR-4
U-251 = tested on: U-251
HL-60 = tested on: HL-60
A549 = tested on: A549
SR = tested on: SR
RXF 393 = tested on: RXF 393
KM12 = tested on: KM12
HOP-62 = tested on: HOP-62
MDA-MB-435 = tested on: MDA-MB-435
MDA-N = tested on: MDA-N

| SMILES | GI50 (HCC 2998) | GI50 (NCI-H226) | GI50 (HT-29) | GI50 (SK-MEL-28) | GI50 (TK-10) | GI50 (LOX IMVI) | GI50 (SF-539) | GI50 (NCI-H460) | GI50 (HCT-15) [µM] | GI50 (COLO 205) | GI50 (OVCAR-4) | GI50 (U-251) | GI50 (HL-60) | GI50 (A549) | GI50 (SR) | GI50 (RXF 393) | GI50 (KM12) | GI50 (HOP-62) | GI50 (MDA-MB-435) | GI50 (MDA-N) |
| --- | --- | --- | --- | --- | --- | --- | --- | --- | --- | --- | --- | --- | --- | --- | --- | --- | --- | --- | --- | --- |
| OC(c1ccccc1)(c1ccccc1)c1ccncc1 | > 100 µM (inactive) | > 100 µM (inactive) | > 100 µM (inactive) | > 100 µM (inactive) | > 100 µM (inactive) | > 100 µM (inactive) | 59.4 µM (inactive) | > 100 µM (inactive) | > 100 | > 100 µM (inactive) | > 100 µM (inactive) | > 100 µM (inactive) | > 100 µM (inactive) | > 100 µM (inactive) | > 100 µM (inactive) | > 100 µM (inactive) | > 100 µM (inactive) | > 100 µM (inactive) | – | – |
| COc1ccc2oc(=O)c(-c3csc(C)n3)cc2c1 | > 100 µM (inactive) | 29.2 µM (inactive) | > 100 µM (inactive) | > 100 µM (inactive) | 26 µM (inactive) | > 100 µM (inactive) | 22.2 µM (inactive) | > 100 µM (inactive) | > 100 | > 100 µM (inactive) | 85.3 µM (inactive) | 23 µM (inactive) | > 100 µM (inactive) | > 100 µM (inactive) | > 100 µM (inactive) | 30.5 µM (inactive) | > 100 µM (inactive) | 31 µM (inactive) | > 100 µM (inactive) | – |
| Cc1cc(N(CCC#N)CCC#N)ccc1C(/N=N/c1ccc([N+](=O)[O-])cc1)=N\NC(=O)c1cc(Cl)ccc1C(=O)c1ccccc1 | 13 µM (inactive) | 10 µM (inactive) | 10.4 µM (inactive) | 20.2 µM (inactive) | 16.9 µM (inactive) | – | – | 6.1 µM (inactive) | 4.8 | 16.2 µM (inactive) | 9.2 µM (inactive) | 13.3 µM (inactive) | – | 15 µM (inactive) | – | 13 µM (inactive) | 9.1 µM (inactive) | 18.4 µM (inactive) | 22.6 µM (inactive) | 18.9 µM (inactive) |
| O=S(=O)(c1ccccc1)c1ccc(-c2nc(-c3ccc4c(c3)Sc3ccccc3S4)cs2)cc1 | 35.5 µM (inactive) | 67 µM (inactive) | > 100 µM (inactive) | – | 22.1 µM (inactive) | > 100 µM (inactive) | 49.5 µM (inactive) | > 100 µM (inactive) | > 100 | > 100 µM (inactive) | > 100 µM (inactive) | 27.9 µM (inactive) | > 100 µM (inactive) | > 100 µM (inactive) | 32.9 µM (inactive) | 15.8 µM (inactive) | > 100 µM (inactive) | 15.9 µM (inactive) | > 100 µM (inactive) | – |
| CC(=O)ON(C(C)=O)C1C(COC(c2ccccc2)(c2ccccc2)c2ccccc2)OC2OC3(CCCC3)OC21 (centres undefined) | > 50.4 µM (inactive) | 9.16 µM (inactive) | > 26.6 µM (inactive) | > 100 µM (inactive) | > 81.7 µM (inactive) | 8.18 µM (inactive) | > 100 µM (inactive) | 6.75 µM (inactive) | 4.6 | > 23.2 µM (inactive) | 7.8 µM (inactive) | 6.47 µM (inactive) | 3.32 µM (inactive) | 4.59 µM (inactive) | 3.2 µM (inactive) | 4.44 µM (inactive) | 5.09 µM (inactive) | 11.6 µM (inactive) | – | – |
| O=c1[nH]cc(-c2c[nH]c3ccccc23)nc1-c1c[nH]c2ccccc12 | 9.57 µM (inactive) | – | – | 15.2 µM (inactive) | 11.7 µM (inactive) | 11.2 µM (inactive) | 8.63 µM (inactive) | 13.8 µM (inactive) | 11.1 | 10.9 µM (inactive) | 6.58 µM (inactive) | 21 µM (inactive) | – | 21 µM (inactive) | – | 2.74 µM (inactive) | 4.95 µM (inactive) | 12.5 µM (inactive) | 3.29 µM (inactive) | 2.47 µM (inactive) |
| N#Cc1ccc(/C=N\N2C(=O)c3ccccc3C2=O)cc1 | > 100 µM (inactive) | > 100 µM (inactive) | > 100 µM (inactive) | > 100 µM (inactive) | > 100 µM (inactive) | > 100 µM (inactive) | > 100 µM (inactive) | > 100 µM (inactive) | > 100 | – | > 100 µM (inactive) | – | > 100 µM (inactive) | > 100 µM (inactive) | > 100 µM (inactive) | > 100 µM (inactive) | > 100 µM (inactive) | > 100 µM (inactive) | – | – |
| N#Cc1ccc(Sc2ccccc2)cc1C#N | > 100 µM (inactive) | > 100 µM (inactive) | > 100 µM (inactive) | > 100 µM (inactive) | 80.5 µM (inactive) | 19.9 µM (inactive) | 19.7 µM (inactive) | 22.2 µM (inactive) | 16 | 33.2 µM (inactive) | > 100 µM (inactive) | 36.1 µM (inactive) | > 100 µM (inactive) | > 100 µM (inactive) | 18.7 µM (inactive) | 33 µM (inactive) | > 100 µM (inactive) | 36.9 µM (inactive) | – | – |
